Assays:
[1] = tested on: C. minutissimum ATCC 23348; experiment: time kill assay, C. minutissimum; type: cell-based, Corynebacterium minutissimum
Method: Corynebacterium minutissimum is the causative agent of erythrasma, a superficial infection of the skin characterized by slowly spreading pruritic, reddish-brown macular patches. A microbiological study used a time kill assay with C. minutissimum ATCC 23348 as an indicator of the antibacterial activity of proguanil. […] A broth only control as well as a solvent 10% DGME control were added to the vials so that the total test volume was 15 ml. One hundred μl of a freshly grown suspension of the C. minutissimum was then added at time zero so that the initial bacterial suspension was between 10^7 and 10^8 CFU/ml. All test and control suspensions were then incubated under aerobic conditions at 35° C. Aliquots of the test and control suspensions were removed at 24, 48, and 72 hours and plated onto tryptic soy agar in triplicate using a spiral plater. These plates were incubated aerobically at 35° C. for 1-3 days. Surviving colonies were then counted and the CFU/ml of test and control suspensions calculated and graphed. The effects of proguanil on the C. minutissimum were observed.

[2] = tested on: Streptococcus equi subsp. equi ATCC 33398; experiment: time kill assay, S. equi (Group C); type: cell-based
Method: (§1) Streptococcus equi (Group C) infections can lead to skin diseases such as erysipelas and cellulitis. A time kill assay was used to test the effects of varying concentrations of proguanil on a culture of Streptococcus equi subsp. equi ATCC 33398. An inoculum of S. equi was prepared and inoculated in vials containing Mueller Hinton II broth and proguanil concentrations of 160, 80, 16, 8, and 1.6 μg/ml. A growth control using phosphate buffered saline A (PBSA) plus Mueller Hinton II broth was used in place of the drug because it has no antimicrobial effect. DGME was the solvent used to dissolve the proguanil, accordingly, 10% DGME was used as the solvent control. These inoculated broth solutions were then allowed to incubate for a period of 72 hours. Samples were taken at 0, 4, 24, 48 and 72 hours and spiral plated so the CFU/ml could be calculated. In the experiments, the effects of proguanil on the S. equi were observed.

[3] = tested on: Staphylococcus aureus ATCC 6538-P; experiment: time kill assay, S. aureus; type: cell-based
Method: Staphylococcus aureus infections can lead to many skin diseases. Impetigo, furuncles, folliculitis, and carbuncles are all diseases caused by an infection of S. aureus. A microbiological study used a time kill assay with Staphylococcus aureus ATCC 6538-P as an indicator of the antibacterial activity of proguanil. […] A broth only control as well as a solvent 10% DGME control were added to the vials so that the total test volume was 15 ml. One hundred μl of a freshly grown suspension of the Staphylococcus aureus was then added at time zero so that the initial bacterial suspension was between 10^3 and 10^4 CFU/ml. All test and control suspensions were then incubated under aerobic conditions at 35° C. […] These plates were incubated aerobically at 35° C. for 1-3 days. Surviving colonies were then counted and the CFU/ml of test and control suspensions calculated and graphed.

[4] = tested on: Streptococcus agalactiae ATCC 49446; experiment: time kill assay, S. agalactiae (Group B); type: cell-based
Method: Streptococcus agalactiae (Group B) infections can lead to skin diseases such as erysipelas and cellulitis. A time kill assay was used to test the effects of varying concentrations of proguanil on a culture of Streptococcus agalactiae ATCC 49446. An inoculum of S. agalactiae was prepared and inoculated in vials containing Muller Hinton II broth and proguanil concentrations of 160, 80, 16, 8, and 1.6 μg/ml. A growth control using phosphate buffered saline A (PBSA) plus Mueller Hinton II broth was used in place of the drug because it has no antimicrobial effect. DGME was the solvent used to dissolve the proguanil, accordingly, 10% DGME was used as the solvent control. These inoculated broth solutions were then allowed to incubate for a period of 72 hours. Samples were taken at 0, 4, 24, 48 and 72 hours and spiral plated so the CFU/ml could be calculated. The effects of proguanil on the S. agalactiae were observed.

[5] = tested on: Streptococcus dysgalactiae subsp. equisimilis ATCC 6644; experiment: time kill assay, S. dysgalactiae (Group G); type: cell-based
Method: as §1, with “Streptococcus dysgalactiae” for “Streptococcus equi”, “(Group G)” for “(Group C)”, “subsp. equisimilis” for “subsp. equi”, “ATCC 6644.” for “ATCC 33398.”, “S. dysgalactiae” for “S. equi”, “containing Muller” for “containing Mueller”

[6] = tested on: Propionibacterium acnes ATCC 6919; experiment: time kill assay, P. acnes; type: cell-based
Method: A microbiological study used a time kill assay with Propionibacterium acnes ATCC 6919 as an indicator of the antibacterial activity of proguanil. […] A broth only control as well as a solvent 10% DGME control were added to the vials so that the total test volume was 15 ml. One hundred μl of a freshly grown suspension of P. acnes 6919 was then added at time zero so that the initial bacterial suspension was between 10^7 and 10^8 CFU/ml. All test and control suspensions were then incubated under anaerobic conditions at 35° C. Aliquots of the test and control suspensions were removed at 24, 48, 72, and 96 hours and plated onto tryptic soy agar in triplicate using a spiral plater. These plates were incubated anaerobically at 35° C. for 3-5 days. Surviving P. acnes colonies were then counted and the CFU/ml of test and control suspensions calculated and graphed.

[7] = 80 μg/ml, time zero to 72 hours
[8] = all other concentrations (16, 8, 1.6 μg/ml)

**Q.** Which results are given for `CC(C)NC(=N)NC(=N)Nc1ccc(Cl)cc1` [Proguanil, N-(4-Chlorophenyl)-N′-(1-methylethyl)imidodicarbonimidic diamide]?
**A.** effect on CFU/ml ([1]; 160 and 80 μg/ml, at 4 hours, 160 greater effect than 80): reduced the CFU/ml; CFU/ml ([1]; 160 and 80 μg/ml, by the 24 hour time point): 0 CFU/ml; Relative Sensitivity (Compared to Other Strains Tested) ([1]; Corynebacterium minutissimum (ATCC 23348)): Very Sensitive; Approximate Inhibitory Level ([1]; Corynebacterium minutissimum (ATCC 23348), level at which partial or total inhibition of growth is observed): 80 µg/mL; effect compared to controls ([1]; all other test concentrations (1.6, 8, 16 μg/ml)): little effect; effect on CFU/ml [2, 7]: only a slight increase in CFU/ml; effect on the bacteria ([2]; 160 μg/ml): strong inhibition and killing; CFU/ml ([2]; 160 μg/ml, T=48 and 72 hours): 0 CFU/ml; Relative Sensitivity (Compared to Other Strains Tested) ([2]; Streptococcus equi subspecies equi (Group C) ATCC 33398): Sensitive; Approximate Inhibitory Level ([2]; Streptococcus equi subspecies equi (Group C) ATCC 33398, level at which partial or total inhibition of growth is observed): 80 to 160 µg/mL; effect on CFU/ml [2, 8]: very similar and near the CFU/ml of the Mueller Hinton II broth control; inhibition of the bacteria ([3]; 160 μg/ml, all time points, similar to the DGME solvent control): slight inhibition; kill of S. aureus ([3]; 320 μg/ml, by the 24 hour time point and later through 72 hours): complete kill; kill of the bacteria ([3]; 1280, 640, and 480 μg/ml, by the 4 hour time point and later through 72 hours): complete kill; Relative Sensitivity (Compared to Other Strains Tested) ([3]; Staphylococcus aureus ATCC-6538P): Moderately; Approximate Inhibitory Level ([3]; Staphylococcus aureus ATCC-6538P, level at which partial or total inhibition of growth is observed): 320 µg/mL; effect on CFU/ml ([4]; 80 μg/ml): slight effect; effect on the bacteria ([4]; 160 μg/ml): dramatic inhibition; CFU/ml ([4]; 160 μg/ml, T=48 and 72 hours): 0 CFU/ml; Relative Sensitivity (Compared to Other Strains Tested) ([4]; Streptococcus agalactiae (Group B) ATCC 49446): Moderately; Approximate Inhibitory Level ([4]; Streptococcus agalactiae (Group B) ATCC 49446, level at which partial or total inhibition of growth is observed): 160 µg/mL; effect on CFU/ml [4, 8]: very similar and near the CFU/ml of the Mueller Hinton II broth control; effect on CFU/ml [5, 7]: only a slight increase in CFU/ml; effect on the bacteria ([5]; 160 μg/ml): strong inhibition and killing effect; CFU/ml ([5]; 160 μg/ml, T=24, 48 and 72 hours): 0 CFU/ml; Relative Sensitivity (Compared to Other Strains Tested) ([5]; Streptococcus dysgalactiae (Group G) ATCC 6644): Sensitive; Approximate Inhibitory Level ([5]; Streptococcus dysgalactiae (Group G) ATCC 6644, level at which partial or total inhibition of growth is observed): 80 to 160 µg/mL; effect on CFU/ml [5, 8]: very similar and near the CFU/ml of the Mueller Hinton II broth control; bacteria eliminated ([6]; 160 μg/ml, by 24 hours): 97-100%; Relative Sensitivity (Compared to Other Strains Tested) ([6]; Propionibacterium acnes ATCC 6919): Sensitive; Approximate Inhibitory Level ([6]; Propionibacterium acnes ATCC 6919, level at which partial or total inhibition of growth is observed): 80 to 160 µg/mL; killing of P. acnes ([6]; between 0.16 and 16 μg/ml): not very effective

Reference: patent US20090280069A1, “PROGUANIL TO TREAT SKIN/MUCOSAL DISEASES” (Tolmar, Inc., priority 2008, published 2009)
